Converted amounts (≈) assume the structure as drawn.
Key:
Assay type in all cases: functional
[1] = tested on: Staphylococcus aureus; assay: Antibacterial activity against Staphylococcus aureus ATCC 25923 after 18 to 24 hrs by CLSI two fold serial dilution method
[2] = tested on: Staphylococcus aureus; assay: Antibacterial activity against methicillin-resistant Staphylococcus aureus N315 after 18 to 24 hrs by CLSI two fold serial dilution method
[3] = tested on: Bacillus subtilis; assay: Antibacterial activity against Bacillus subtilis ATCC 21216 after 18 to 24 hrs by CLSI two fold serial dilution method
[4] = tested on: Micrococcus luteus; assay: Antibacterial activity against Micrococcus luteus ATCC 4698 after 18 to 24 hrs by CLSI two fold serial dilution method
[5] = tested on: Enterococcus faecalis; assay: Antibacterial activity against drug-resistant Enterococcus faecalis after 18 to 24 hrs by CLSI two fold serial dilution method
[6] = tested on: Escherichia coli; assay: Antibacterial activity against Escherichia coli DH52 after 18 to 24 hrs by CLSI two fold serial dilution method
[7] = tested on: Escherichia coli; assay: Antibacterial activity against drug-resistant Escherichia coli after 18 to 24 hrs by CLSI two fold serial dilution method
[8] = tested on: Pseudomonas aeruginosa; assay: Antibacterial activity against Pseudomonas aeruginosa ATCC 27853 after 18 to 24 hrs by CLSI two fold serial dilution method
[9] = tested on: Pseudomonas aeruginosa; assay: Antibacterial activity against drug-resistant Pseudomonas aeruginosa after 18 to 24 hrs by CLSI two fold serial dilution method
[10] = tested on: Klebsiella pneumoniae; assay: Antibacterial activity against drug-resistant Klebsiella pneumoniae after 18 to 24 hrs by CLSI two fold serial dilution method
[11] = tested on: Acinetobacter baumannii; assay: Antibacterial activity against drug-resistant Acinetobacter baumannii after 18 to 24 hrs by CLSI two fold serial dilution method
[12] = tested on: Candida albicans; assay: Antifungal activity against Candida albicans ATCC 76615 by CLSI two fold serial dilution method
[13] = tested on: Cyberlindnera jadinii; assay: Antifungal activity against Candida utilis ATCC 9950 by CLSI two fold serial dilution method; conditions: Williopsis jadinii
[14] = tested on: Pichia norvegensis; assay: Antifungal activity against Candida mycoderma ATCC 96918 by CLSI two fold serial dilution method
[15] = tested on: Aspergillus flavus; assay: Antifungal activity against Aspergillus flavus ATCC 204304 by CLSI two fold serial dilution method
[16] = tested on: Saccharomyces cerevisiae; assay: Antifungal activity against Saccharomyces cerevisiae ATCC 9763 by CLSI two fold serial dilution method
[17] = tested on: Candida parapsilosis; assay: Antifungal activity against Candida parapsilosis ATCC 22019 by CLSI two fold serial dilution method; conditions: Lodderomyces parapsilosis
[18] = tested on: Candida albicans; assay: Antifungal activity against drug-resistant Candida albicans by CLSI two fold serial dilution method
[19] = tested on: Candida tropicalis; assay: Antifungal activity against drug-resistant Candida tropicalis by CLSI two fold serial dilution method
[20] = tested on: Aspergillus fumigatus; assay: Antifungal activity against drug-resistant Aspergillus fumigatus by CLSI two fold serial dilution method

Row | SMILES | MIC [1] [µM] | MIC [2] [µM] | MIC [3] [µM] | MIC [4] [µM] | MIC [5] [µM] | MIC [6] [µM] | MIC [7] [µM] | MIC [8] [µM] | MIC [9] [µM] | MIC [10] [µM] | MIC [11] [µM] | MIC [12] [µM] | MIC [13] [µM] | MIC [14] [µM] | MIC [15] [µM] | MIC [16] [µM] | MIC [17] [µM] | MIC [18] [µM] | MIC [19] [µM] | MIC [20] [µM]
1 | COc1cc(/C=N/NC(N)=S)c2c(c1OCc1ccccc1)CN1CCc3cc4c(cc3C1C2)OCO4 (configuration not stated) | 120 (≈ 62 µg/mL) | 120 (≈ 62 µg/mL) | 250 (≈ 129 µg/mL) | 250 (≈ 129 µg/mL) | 250 (≈ 129 µg/mL) | 250 (≈ 129 µg/mL) | 250 (≈ 129 µg/mL) | 250 (≈ 129 µg/mL) | 250 (≈ 129 µg/mL) | 500 (≈ 258 µg/mL) | 120 (≈ 62 µg/mL) | 250 (≈ 129 µg/mL) | 250 (≈ 129 µg/mL) | 500 (≈ 258 µg/mL) | 250 (≈ 129 µg/mL) | 250 (≈ 129 µg/mL) | 30 (≈ 15.5 µg/mL) | 250 (≈ 129 µg/mL) | 250 (≈ 129 µg/mL) | 60 (≈ 31 µg/mL)
2 | C#CCOc1c(OC)cc(/C=N/Nc2nccs2)c2c1CN1CCc3cc4c(cc3C1C2)OCO4 (configuration not stated) | 130 (≈ 63.5 µg/mL) | – | 520 (≈ 254 µg/mL) | 520 (≈ 254 µg/mL) | – | 130 (≈ 63.5 µg/mL) | – | 130 (≈ 63.5 µg/mL) | – | – | – | 260 (≈ 127 µg/mL) | 260 (≈ 127 µg/mL) | 1050 (≈ 513 µg/mL) | 1050 (≈ 513 µg/mL) | 1050 (≈ 513 µg/mL) | 130 (≈ 63.5 µg/mL) | – | – | –
3 | COc1cc(/C=N/NC(N)=S)c2c(c1OCc1ccc(F)cc1)CN1CCc3cc4c(cc3C1C2)OCO4 (configuration not stated) | 120 (≈ 64.2 µg/mL) | 120 (≈ 64.2 µg/mL) | 480 (≈ 257 µg/mL) | 480 (≈ 257 µg/mL) | 120 (≈ 64.2 µg/mL) | 240 (≈ 128 µg/mL) | 240 (≈ 128 µg/mL) | 240 (≈ 128 µg/mL) | 240 (≈ 128 µg/mL) | 480 (≈ 257 µg/mL) | 8 (≈ 4.28 µg/mL) | 120 (≈ 64.2 µg/mL) | 480 (≈ 257 µg/mL) | 240 (≈ 128 µg/mL) | 480 (≈ 257 µg/mL) | 240 (≈ 128 µg/mL) | 60 (≈ 32.1 µg/mL) | 120 (≈ 64.2 µg/mL) | 120 (≈ 64.2 µg/mL) | 120 (≈ 64.2 µg/mL)
4 | COc1cc(/C=N/NC(N)=S)c2c(c1OCc1ccc([N+](=O)[O-])cc1)CN1CCc3cc4c(cc3C1C2)OCO4 (configuration not stated) | 230 (≈ 129 µg/mL) | 230 (≈ 129 µg/mL) | 460 (≈ 258 µg/mL) | 110 (≈ 61.8 µg/mL) | 230 (≈ 129 µg/mL) | 110 (≈ 61.8 µg/mL) | 110 (≈ 61.8 µg/mL) | 230 (≈ 129 µg/mL) | 230 (≈ 129 µg/mL) | 460 (≈ 258 µg/mL) | 460 (≈ 258 µg/mL) | 230 (≈ 129 µg/mL) | 460 (≈ 258 µg/mL) | 230 (≈ 129 µg/mL) | 460 (≈ 258 µg/mL) | 460 (≈ 258 µg/mL) | 110 (≈ 61.8 µg/mL) | 230 (≈ 129 µg/mL) | 460 (≈ 258 µg/mL) | 460 (≈ 258 µg/mL)
5 | CCCCCCCCCCCCOc1c(OC)cc(/C=N/Nc2nccs2)c2c1CN1CCc3cc4c(cc3C1C2)OCO4 (configuration not stated) | 210 (≈ 130 µg/mL) | – | 30 (≈ 18.6 µg/mL) | 830 (≈ 514 µg/mL) | – | 210 (≈ 130 µg/mL) | – | 410 (≈ 254 µg/mL) | – | – | – | 410 (≈ 254 µg/mL) | 410 (≈ 254 µg/mL) | 50 (≈ 30.9 µg/mL) | 410 (≈ 254 µg/mL) | 830 (≈ 514 µg/mL) | 30 (≈ 18.6 µg/mL) | – | – | –
6 | C=CCOc1c(OC)cc(/C=N/NC(N)=S)c2c1CN1CCc3cc4c(cc3C1C2)OCO4 (configuration not stated) | 70 (≈ 32.7 µg/mL) | 70 (≈ 32.7 µg/mL) | 270 (≈ 126 µg/mL) | 270 (≈ 126 µg/mL) | 140 (≈ 65.3 µg/mL) | 140 (≈ 65.3 µg/mL) | 140 (≈ 65.3 µg/mL) | 140 (≈ 65.3 µg/mL) | 140 (≈ 65.3 µg/mL) | 550 (≈ 257 µg/mL) | 70 (≈ 32.7 µg/mL) | 140 (≈ 65.3 µg/mL) | 270 (≈ 126 µg/mL) | 270 (≈ 126 µg/mL) | 270 (≈ 126 µg/mL) | 550 (≈ 257 µg/mL) | 30 (≈ 14 µg/mL) | 140 (≈ 65.3 µg/mL) | 70 (≈ 32.7 µg/mL) | 70 (≈ 32.7 µg/mL)
7 | COc1cc(/C=N/NC(N)=S)c2c(c1O)CN1CCc3cc4c(cc3C1C2)OCO4 (configuration not stated) | 150 (≈ 64 µg/mL) | 150 (≈ 64 µg/mL) | 300 (≈ 128 µg/mL) | 300 (≈ 128 µg/mL) | 300 (≈ 128 µg/mL) | 300 (≈ 128 µg/mL) | 600 (≈ 256 µg/mL) | 150 (≈ 64 µg/mL) | 150 (≈ 64 µg/mL) | 150 (≈ 64 µg/mL) | 150 (≈ 64 µg/mL) | 150 (≈ 64 µg/mL) | 600 (≈ 256 µg/mL) | 300 (≈ 128 µg/mL) | 600 (≈ 256 µg/mL) | 300 (≈ 128 µg/mL) | 9 (≈ 3.84 µg/mL) | 300 (≈ 128 µg/mL) | 300 (≈ 128 µg/mL) | 150 (≈ 64 µg/mL)
8 | CCCCCCCCCCCCOc1c(OC)cc(/C=N/NC(N)=S)c2c1CN1CCc3cc4c(cc3C1C2)OCO4 (configuration not stated) | 110 (≈ 65.4 µg/mL) | 110 (≈ 65.4 µg/mL) | 430 (≈ 256 µg/mL) | 110 (≈ 65.4 µg/mL) | 220 (≈ 131 µg/mL) | 110 (≈ 65.4 µg/mL) | 110 (≈ 65.4 µg/mL) | 110 (≈ 65.4 µg/mL) | 110 (≈ 65.4 µg/mL) | 430 (≈ 256 µg/mL) | 7 (≈ 4.16 µg/mL) | 110 (≈ 65.4 µg/mL) | 430 (≈ 256 µg/mL) | 220 (≈ 131 µg/mL) | 430 (≈ 256 µg/mL) | 220 (≈ 131 µg/mL) | 220 (≈ 131 µg/mL) | 110 (≈ 65.4 µg/mL) | 50 (≈ 29.7 µg/mL) | 7 (≈ 4.16 µg/mL)

From ChEMBL document CHEMBL4145497, “Discovery of 2-aminothiazolyl berberine derivatives as effectively antibacterial agents toward clinically drug-resistant Gram-negative Acinetobacter baumanii” (Eur J Med Chem, 2018)
